Results from ChEMBL document CHEMBL1151532, “Oxa-prostanoid analogs. Identification of an orally effective, dual thromboxane receptor antagonist /thromboxane synthase inhibitor” (Bioorg Med Chem Lett, 1994).
Values joined by “and” are separate entries in the source; they are usually repeats but may differ in a detail not shown here. Equal values may be shown once.

Legend:
Thromboxane-A synthase = molecular target: T1, Thromboxane-A synthase (Homo sapiens, UniProt P24557); experiment: In vitro inhibition against thromboxane synthase
T1 sequence (P24557 whole entry): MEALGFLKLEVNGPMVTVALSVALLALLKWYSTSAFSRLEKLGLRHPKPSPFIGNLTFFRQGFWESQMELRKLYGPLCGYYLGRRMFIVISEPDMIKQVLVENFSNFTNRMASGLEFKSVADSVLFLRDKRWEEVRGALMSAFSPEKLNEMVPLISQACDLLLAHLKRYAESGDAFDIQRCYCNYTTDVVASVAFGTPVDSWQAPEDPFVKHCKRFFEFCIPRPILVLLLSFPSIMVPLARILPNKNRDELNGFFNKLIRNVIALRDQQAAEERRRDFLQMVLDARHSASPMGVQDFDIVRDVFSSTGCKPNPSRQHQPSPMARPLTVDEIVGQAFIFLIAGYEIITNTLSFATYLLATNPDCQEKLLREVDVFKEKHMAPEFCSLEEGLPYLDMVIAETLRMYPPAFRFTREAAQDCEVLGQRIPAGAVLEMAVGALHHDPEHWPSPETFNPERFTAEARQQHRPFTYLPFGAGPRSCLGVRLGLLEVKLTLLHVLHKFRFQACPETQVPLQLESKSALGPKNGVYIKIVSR

[1] = In vitro thromboxane receptor antagonist against U-46619 induced aggregation of washed human platelets
Cavia porcellus = experiment: Ex vivo inhibition of […] induced guinea pig platelet aggregation after 1 hr post oral administration at a dose of 10 mg/kg; Aggregation ratio = EC50 for drug/EC50 for control; assay type: functional

Row | Compound | IC50 (Thromboxane-A synthase) [nM] | other results
1 | O=C(O)CC/C=C\CC[C@H]1[C@H](OCc2ccc(-c3ccccc3)cc2)CO[C@H]1c1cccnc1 | 65 | 
2 | O=C(O)CC/C=C\CC[C@@H]1[C@@H](c2cccnc2)OC[C@H]1OCc1ccc(-c2ccccc2)cc1 | 22 | 
3 | O=C(O)CCC(CCCCNS(=O)(=O)c1ccc(Cl)cc1)CCCc1cccnc1 (stereo not given) |  | IC50 [1]: 18 nM; Aggregation ratio (Cavia porcellus): 24.5
4 | O=C(O)CC/C=C\CC[C@H]1[C@@H](OCc2ccc(-c3ccccc3)cc2)CO[C@H]1c1cccnc1 | 32 | 
5 | O=C(O)CC/C=C\CC[C@H]1[C@@H](OCc2ccc(-c3ccccc3)cc2)CO[C@@H]1c1cccnc1 (stereo in doubt; 5) | 17 | 
6 | O=C(O)CC/C=C\CC[C@H]1[C@@H](OCc2ccc(-c3ccccc3)cc2)CO[C@@H]1c1cccnc1 (stereo in doubt; (+)) | 4.3 | Aggregation ratio (Cavia porcellus; 10 mg/kg): >100 and 65.6
7 | O=C(O)CC/C=C\CC[C@H]1[C@@H](OCc2ccc(-c3ccccc3)cc2)CO[C@@H]1c1cccnc1 (stereo in doubt; (-)) | 120 | 
8 | O=C(O)CCCCO/N=C(/c1cccnc1)c1cccc(C(F)(F)F)c1 [RIDOGREL] |  | Aggregation ratio (Cavia porcellus): 4.4
